According to ChEMBL document CHEMBL4422633, “Antioxidant-Inspired Drug Discovery: Antitumor Metabolite Is Formed in Situ from a Hydroxycinnamic Acid Derivative upon Free-Radical Scavenging” (J Med Chem, 2019):
Active and inactive are the calls of the source. No cut-off for these calls is given here.

Experiments:
[1] = tested on: NCI-H661; test: Induction of apoptosis in human NCI-H661 cells assessed as necrotic cells at 10 uM after 24 hrs by Annexin V/propidium iodide-staining based flow cytometry (reference value: 2.58 +/- 0.05%); type: functional
[2] = tested on: NCI-H661; test: Induction of apoptosis in human NCI-H661 cells assessed as viable cells at 10 uM after 24 hrs by Annexin V/propidium iodide-staining based flow cytometry (reference value: 96.16 +/- 0.96%); type: functional; conditions: NCI-H661, 24 h, read-out: Activity
[3] = Induction of apoptosis in human NCI-H460/R cells transfected with MDR assessed as early apoptotic cells at 10 uM after 24 hrs by Annexin V/propidium iodide-staining based flow cytometry (reference value: 0.22 +/- 0.01%); type: functional
[4] = Induction of apoptosis in human NCI-H460/R cells transfected with MDR assessed as necrotic cells at 10 uM after 24 hrs by Annexin V/propidium iodide-staining based flow cytometry (reference value: 3.17 +/- 0.13%); type: functional
[5] = Induction of apoptosis in human NCI-H460/R cells transfected with MDR assessed as viable cells at 10 uM after 24 hrs by Annexin V/propidium iodide-staining based flow cytometry (reference value: 95.76 +/- 2.87%); type: functional; conditions: NCI-H460, 24 h, read-out: Activity
[6] = tested on: NCI-H460; test: Reduction in ROS generation in human NCI-H460 cells assessed as decrease in DHE positive cells at 10 uM after 24 hrs by DHE-staining based flow cytometry; type: functional, cell-based
[7] = tested on: HaCaT; test: Cytotoxicity against human HaCaT cells assessed as reduction in cell viability after 72 hrs by MTT assay; type: cell-based
[8] = Induction of apoptosis in human HaCaT cells assessed as viable cells at 10 uM after 24 hrs by Annexin V/propidium iodide-staining based flow cytometry (reference value: 95.63 +/- 3.83%); type: cell-based; conditions: read-out: Activity
[9] = tested on: NCI-H661; test: Cytotoxicity against human NCI-H661 cells assessed as reduction in cell viability after 72 hrs by MTT assay; type: functional, cell-based; conditions: NCI-H661, 72 h
[10] = Induction of apoptosis in human NCI-H460/R cells transfected with MDR assessed as late apoptotic cells at 10 uM after 24 hrs by Annexin V/propidium iodide-staining based flow cytometry (reference value: 0.84 +/- 0.01%); type: functional
[11] = tested on: A549; test: Reduction in ROS generation in human A549 cells assessed as decrease in DHE positive cells at 10 uM after 24 hrs by DHE-staining based flow cytometry; type: functional, cell-based
[12] = tested on: NCI-H460; test: Induction of apoptosis in human NCI-H460 cells assessed as late apoptotic cells at 10 uM after 24 hrs by Annexin V/propidium iodide-staining based flow cytometry (reference value: 0.93 +/- 0.04%); type: functional
[13] = tested on: A549; test: Induction of apoptosis in human A549 cells assessed as early apoptotic cells at 10 uM after 24 hrs by Annexin V/propidium iodide-staining based flow cytometry (reference value: 0.48 +/- 0.01%); type: functional
[14] = Cytotoxicity against human NCI-H460/R cells transfected with MDR assessed as reduction in cell viability after 72 hrs by MTT assay; type: functional, cell-based; conditions: NCI-H460, 72 h
[15] = tested on: A549; test: Induction of apoptosis in human A549 cells assessed as viable cells at 10 uM after 24 hrs by Annexin V/propidium iodide-staining based flow cytometry (reference value: 96.45 +/- 2.89%); type: functional; conditions: A549, 24 h, read-out: Activity
[16] = tested on: HaCaT; test: Induction of apoptosis in human HaCaT cells assessed as early apoptotic cells at 10 uM after 24 hrs by Annexin V/propidium iodide-staining based flow cytometry (reference value: 0.23 +/- 0.01%); type: cell-based
[17] = Cytotoxicity against mouse L5178B1 cells transfected with pHa MDR1/A retrovirus assessed as reduction in cell viability after 72 hrs by MTT assay; type: functional, cell-based; conditions: MDR1, 72 h
[18] = tested on: HaCaT; test: Induction of apoptosis in human HaCaT cells assessed as necrotic cells at 10 uM after 24 hrs by Annexin V/propidium iodide-staining based flow cytometry (reference value: 1.88 +/- 0.02%); type: cell-based
[19] = tested on: HaCaT; test: DNA protective activity in human HaCaT cells assessed as reduction in H2AX expression at 10 uM after 24 hrs by alexa fluor 488-staining based flow cytometry; type: functional, cell-based
[20] = tested on: HeLa; test: Cytotoxicity against human HeLa cells assessed as reduction in cell viability after 72 hrs by MTT assay; type: functional, cell-based
[21] = Cytotoxicity against mouse L5178 cells assessed as reduction in cell viability after 72 hrs by MTT assay; type: functional, cell-based; conditions: L5178, 72 h
[22] = tested on: A549; test: Cytotoxicity against human A549 cells assessed as reduction in cell viability after 72 hrs by MTT assay; type: functional, cell-based; conditions: A549, 72 h
[23] = tested on: NCI-H460; test: Induction of apoptosis in human NCI-H460 cells assessed as early apoptotic cells at 10 uM after 24 hrs by Annexin V/propidium iodide-staining based flow cytometry (reference value: 0.45 +/- 0.01%); type: functional
[24] = tested on: A549; test: Induction of apoptosis in human A549 cells assessed as late apoptotic cells at 10 uM after 24 hrs by Annexin V/propidium iodide-staining based flow cytometry (reference value: 1.54 +/- 0.03%); type: functional
[25] = tested on: NCI-H460; test: Induction of apoptosis in human NCI-H460 cells assessed as viable cells at 10 uM after 24 hrs by Annexin V/propidium iodide-staining based flow cytometry (reference value: 96.49 +/- 0.96%); type: functional; conditions: NCI-H460, 24 h, read-out: Activity
[26] = tested on: NCI-H460; test: DNA protective activity in human NCI-H460 cells assessed as reduction in H2AX expression at 10 uM after 24 hrs by alexa fluor 488-staining based flow cytometry; type: functional, cell-based
[27] = tested on: NCI-H661; test: Induction of apoptosis in human NCI-H661 cells assessed as late apoptotic cells at 10 uM after 24 hrs by Annexin V/propidium iodide-staining based flow cytometry (reference value: 0.95 +/- 0.03%); type: functional
[28] = organism: Homo sapiens; test: Reduction in ROS generation in human NCI-H460/R cells transfected with MDR assessed as reduction in DHE positive cells at 10 uM after 24 hrs by DHE-staining based flow cytometry; type: functional, cell-based
[29] = tested on: NCI-H661; test: Reduction in ROS generation in human NCI-H661 cells assessed as decrease in DHE positive cells at 10 uM after 24 hrs by DHE-staining based flow cytometry; type: functional, cell-based
[30] = tested on: NCI-H661; test: Induction of apoptosis in human NCI-H661 cells assessed as early apoptotic cells at 10 uM after 24 hrs by Annexin V/propidium iodide-staining based flow cytometry (reference value: 0.31 +/- 0.01%); type: functional
[31] = tested on: HaCaT; test: Induction of apoptosis in human HaCaT cells assessed as late apoptotic cells at 10 uM after 24 hrs by Annexin V/propidium iodide-staining based flow cytometry (reference value: 2.26 +/- 0.09%); type: cell-based
[32] = tested on: HaCaT; test: Reduction in ROS generation in human HaCaT cells assessed as decrease in DHE positive cells at 10 uM after 24 hrs by DHE-staining based flow cytometry; type: functional, cell-based
[33] = tested on: A549; test: Induction of apoptosis in human A549 cells assessed as necrotic cells at 10 uM after 24 hrs by Annexin V/propidium iodide-staining based flow cytometry (reference value: 1.52 +/- 0.05%); type: functional
[34] = tested on: NCI-H460; test: Cytotoxicity against human NCI-H460 cells assessed as reduction in cell viability after 72 hrs by MTT assay; type: functional, cell-based; conditions: NCI-H460, 72 h
[35] = tested on: NCI-H460; test: Induction of apoptosis in human NCI-H460 cells assessed as necrotic cells at 10 uM after 24 hrs by Annexin V/propidium iodide-staining based flow cytometry (reference value: 2.13 +/- 0.02%); type: functional
[36] = organism: Homo sapiens; test: DNA protective activity in human NCI-H460/R cells transfected with MDR assessed as increase in H2AX expression at 10 uM after 24 hrs by alexa fluor 488-staining based flow cytometry; type: functional, cell-based

`COC(=O)/C=C/c1cc(O)ccc1O` showed an Activity [1] of 6.69%, a viability at 10 µM [2] of 89.4% and an Activity [3] of 0.16%. For the same compound, the Activity [4] was 7.71%, the viability at 10 µM [5] was 89.7% and the Activity [6] was “Active”. It also gave an IC50 [7] of 9.69 µM, a viability at 24 h, 10 µM [8] of 91% and an IC50 [9] of 4.19 µM. For the same compound, the Activity [10] was 2.48%, the Activity [11] was “Active” and the Activity [12] was 5.1%. It also gave an Activity [13] of 2.36%, an IC50 [14] of 7.05 µM and a viability at 10 µM [15] of 88.2%. It also gave an Activity [16] of 0.5%, an IC50 [17] of 12.4 µM and an Activity [18] of 5.9%. For the same compound, the Activity [19] was “Active”, the IC50 [20] was 8.51 µM and the IC50 [21] was 5.23 µM. The IC50 [22] was 4.14 µM, the Activity [23] was 0.34% and the Activity [24] was 5.62%. The viability at 10 µM [25] was 86.6%, the Activity [26] was “Active” and the Activity [27] was 3.39%. For the same compound, the Activity [28] was “Active”, the Activity [29] was “Active” and the Activity [30] was 0.49%. For the same compound, the Activity [31] was 2.65%, the Activity [32] was “Active” and the Activity [33] was 3.78%. The IC50 [34] was 3.77 µM, the Activity [35] was 9.92% and the Activity [36] was “Active”.
